Results taken from ChEMBL document CHEMBL1201862, “PubChem BioAssay data set” (2004).
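All cell lines were grown in 96-well plates and treated with compound for 48 hours. At the GI50, growth is halved.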 Active and inactive are the calls of the source. Cut-off read from the data, not from the text of the source: active = GI50 up to about 1.1 µM and inactive = higher.

Experiments:
Assay in all cases: DTP human tumour cell line panel, 48 h
SK-MEL-5 = test system: SK-MEL-5
OVCAR-4 = test system: OVCAR-4
A498 = test system: A498
LXFL 529 = test system: LXFL 529
HCC 2998 = test system: HCC 2998
KM-20L2 = test system: KM-20L2
SN12C = test system: SN12C
SW-620 = test system: SW-620
SK-MEL-2 = test system: SK-MEL-2
RXF 393 = test system: RXF 393
HCT-116 = test system: HCT-116
UACC-257 = test system: UACC-257
SF-295 = test system: SF-295
OVCAR-5 = test system: OVCAR-5
NCI-H23 = test system: NCI-H23
SF-539 = test system: SF-539
EKVX = test system: EKVX
PC-3 = test system: PC-3
BT-549 = test system: BT-549
Hs-578T = test system: Hs-578T

Measured: GI50

O=[N+]([O-])C1C2C=CC(C2)[C@H]1c1ccccc1Cl (stereo not given in full)
inactive: SK-MEL-5 53.5 µM | OVCAR-4 > 10 µM | A498 > 89.9 µM | LXFL 529 75 µM | HCC 2998 > 100 µM | KM-20L2 > 100 µM | SN12C > 100 µM | SW-620 > 100 µM | SK-MEL-2 > 77.8 µM | RXF 393 45.8 µM | HCT-116 > 89.9 µM | UACC-257 67 µM | SF-295 > 100 µM | OVCAR-5 16.5 µM | NCI-H23 63.4 µM | SF-539 > 100 µM | EKVX > 100 µM

C[N+]1(C)C/C(=C\C=C\c2ccccc2)C(=O)/C(=C/C=C/c2ccccc2)C1
inactive: PC-3 10.4 µM | SK-MEL-5 6.24 µM | OVCAR-4 42.7 µM | A498 60.1 µM | LXFL 529 2.98 µM | HCC 2998 8.55 µM | KM-20L2 14.7 µM | SN12C 7.69 µM | BT-549 1.92 µM | SW-620 9.79 µM | SK-MEL-2 17 µM | RXF 393 21.5 µM | HCT-116 9.48 µM | UACC-257 8.39 µM | SF-295 23.8 µM | OVCAR-5 24.3 µM | NCI-H23 9.71 µM | SF-539 7.55 µM | EKVX 45.1 µM | Hs-578T 4.29 µM

Cc1cccc(C)c1N1C(=O)C(=O)C(c2nc3ccccc3s2)/C(=N/NC(=O)NN)C1=O (stereo not given)
inactive: SK-MEL-5 > 100 µM | OVCAR-4 > 100 µM | A498 > 100 µM | LXFL 529 > 100 µM | HCC 2998 > 100 µM | KM-20L2 > 100 µM | SN12C > 100 µM | SW-620 > 100 µM | SK-MEL-2 > 100 µM | RXF 393 > 100 µM | HCT-116 > 100 µM | UACC-257 > 100 µM | SF-295 > 100 µM | NCI-H23 > 100 µM | SF-539 > 100 µM | EKVX > 100 µM

O=c1nc(NC(c2ccccc2)(c2ccccc2)c2ccccc2)ccn1CCO
inactive: OVCAR-4 63.2 µM | A498 > 100 µM | LXFL 529 63.4 µM | HCC 2998 > 100 µM | KM-20L2 > 100 µM | SN12C 88.7 µM | SW-620 > 100 µM | SK-MEL-2 > 100 µM | RXF 393 6.52 µM | HCT-116 61.1 µM | UACC-257 > 100 µM | SF-295 61.1 µM | OVCAR-5 > 100 µM | NCI-H23 > 100 µM | SF-539 > 100 µM | EKVX 81.8 µM

CCOC(=O)C1(c2ccccc2)CCC(=O)CC1
inactive: SK-MEL-5 > 100 µM | OVCAR-4 > 100 µM | A498 > 100 µM | LXFL 529 > 100 µM | HCC 2998 > 100 µM | KM-20L2 > 100 µM | SN12C > 100 µM | SW-620 > 100 µM | SK-MEL-2 > 100 µM | RXF 393 > 100 µM | HCT-116 > 100 µM | UACC-257 > 100 µM | SF-295 > 100 µM | OVCAR-5 > 100 µM | NCI-H23 > 100 µM | EKVX > 100 µM
